Measurements from publication PMC6611794, “Development of a high-throughput strategy for discovery of potent analogues of antibiotic lysocin E” (Nature Communications, 2019).
In brackets after ≈: the same amount, converted by molar mass. Like-named read-outs stand apart in the source and are kept apart here. One block for each molecule: values may come before it. Where a SMILES comes first, the peptide text is derived from it. Bridges are numbered along the chain shown (N, C = ends). [ ]: non-standard residue; d: D form. The star is where a group is joined. Hexanoyl(3R-OH,5-Me) = CC(C)C[C@@H](O)CC(=O)*; dNMeF = CN[C@H](Cc1ccccc1)C(=O)O

Tests used:
S. aureus [1] = type: cell-based, Staphylococcus aureus; details: 18 h
Method: (§1) Antimicrobial activity assay of bead-derived peptides. […]
(§2) plate was added DMSO (1 µL/well). […]
(§3) precipitation of the grown cells was examined.
(§4) Evaluation of antimicrobial spectra of peptides. The MIC assay was performed according to the Clinical and Laboratory Standards Institute protocols. The antimicrobial activities of the peptides were measured […]
(§5) Soy Broth or Müller Hinton Broth agar plates. Bacterial inoculum was prepared by direct suspension of the […]
(§6) and incubated at 37 °C for 18 h. […]
(§7) inhibited growth of bacteria.

[2] = test system: Staphylococcus aureus RN4220
Method: ×105 colony forming units (CFU) , 21 g/L Müller Hinton Broth (Difco), 5 0 mg/L Ca2+ (adjusted with CaCl2• 2H2O), and 25 mg/L Mg 2+ (adjusted with MgCl 2•6H2O)]. […]
(§8) Evaluation of antimicrobial spectra of peptides. The MIC assay was performed according to the Clinical and Laboratory Standards Institute protocols. The antimicrobial activities of the peptides were measured using the broth microdilution method.1 Serial dilutions of peptides were prepared in cation adjusted Müller Hinton Broth. Each dilution (100 µL) was dispensed to each well of the round-bottom plate to obtain final concentrations ranging from 64 µg/m L to 0.0075 µg/m L. Bacteria were grown at 37 °C overnight on Tryptic Soy Broth or Müller Hinton Broth agar plates. Bacterial inoculum was prepared by direct suspension of the colonies in 0.9% saline, and adjusted to obtain OD 625 0.08–0.13 using a spectrophotometer UV -1280 (Shimadzu). The resultant suspension was diluted with cation adjusted Müller Hinton Broth (1/20). The resultant mixture (10 µL) was inoculated to each well of the plates (approximately 5 ×10^4 CFU/well ), mixed, and incubated at 37 °C for 18 h. The MIC value was determined as the minimum concentration that inhibited growth of bacteria. To evaluate the antimicrobial activities of peptides in the presence of serum, 10% bovine calf serum in cation adjusted Müller Hinton Broth was used.

[3] = test system: Staphylococcus aureus Smith ATCC 13709; type: cell-based
Method: as §1, §2, §3, §4, §5, §6, §7

MRSA = test system: MRSA; set-up: method as in PMID 25485686; details: cited from earlier work
Text: (§9) Lysocin E (1, Fig. 1a) was isolated from Lysobacter sp. as a new antibiotic and structurally determined to be a 37-membered depsipeptide (molecular weight = 1618 Da) with an N-methylated amide and ester linkages. The macrocyclic core of 12 residues contains four different non-proteinogenic D-amino acids (D-Arg-2/7, N-Me-D-Phe-5, D-Gln-9, D-Trp-10) and is appended with (R)-3-hydroxy-5-methylhexanamide.

[4] = set-up: method as in our previous studies; details: ref our previous studies, cited from earlier work
Text: as §9

[5] = test system: Staphylococcus aureus MSSA1; details: for antimicrobial activity relative to parent 1: 10% BCS
Method: as §8

S. aureus [6] = test system: S. aureus; set-up: method as in PMID 25485686; details: S. aureus-infected mice; cited from earlier work
Text: as §9, with “(R)-3-hydroxy-5-methylhexanamide. […] Screening of the additives ind ...” for “(R)-3-hydroxy-5-methylhexanamide.”

[7] = test system: Listeria monocytogenes 10403S; type: cell-based; details: 18 h
Method: as §1, §2, §3, §4, §5, §6, §7

[8] = test system: Bacillus subtilis JCM2499; type: cell-based; details: JCM2499, 18 h
Method: as §1, §2, §3, §4, §5, §6, §7

Bacillus cereus JCM20037 = type: cell-based; details: JCM20037, 18 h
Method: as §1, §2, §3, §4, §5, §6, §7

SMILES: CC[C@H](C)[C@@H]1NC(=O)[C@@H](Cc2c[nH]c3ccccc23)NC(=O)[C@@H](CCC(N)=O)NC(=O)[C@H](CCC(=O)O)NC(=O)[C@@H](CCCNC(=N)N)NC(=O)[C@H](CC(C)C)NC(=O)[C@@H](Cc2ccccc2)N(C)C(=O)CNC(=O)[C@H](CO)NC(=O)[C@@H](CCCNC(=N)N)NC(=O)[C@@H](NC(=O)C[C@H](O)CC(C)C)[C@@H](C)OC(=O)[C@H]([C@@H](C)O)NC1=O [Peptide 1, Lysocin E] ({Hexanoyl(3R-OH,5-Me)}-T[dR]SG[dNMeF]L[dR]E[dQ][dW]IT; ester 1-C)
original MIC value against S. aureus (S. aureus [1]): 2 to 4 µg/mL | MIC ([2]; 10% BCS (+)): 0.125 µg/mL (≈ 0.0773 µM) | MIC ([2]; BCS free): 4.0 µg/mL (≈ 2.47 µM) | decrease of MIC by adding 10% BCS [3]: 64 fold | MIC ([3]; 10% BCS (+)): 0.0625 µg/mL (≈ 0.0386 µM) | MIC ([3]; ATCC 13709, 18 h): 2.0 µg/mL (≈ 1.24 µM) | minimum inhibitory concentration (MIC) against MRSA (MRSA): 4 µg/mL (≈ 2.47 µM) | Kd ([4]; 1:1 complex with MK-4, in vitro): 4.5 µM | affinity toward ubiquinone-10 ([4]; in vitro): no affinity | MIC ([5]; 10% BCS (+)): 0.0625 µg/mL (≈ 0.0386 µM) | MIC ([5]; BCS free): 2.0 µg/mL (≈ 1.24 µM) | ED50 (S. aureus [6]): 0.5 mg/kg

SMILES: CC[C@H](C)[C@@H]1NC(=O)[C@@H](Cc2c[nH]c3ccccc23)NC(=O)[C@@H](CCC(N)=O)NC(=O)[C@H](CCC(=O)O)NC(=O)[C@@H](CCCNC(=N)N)NC(=O)[C@H](CC(C)C)NC(=O)[C@@H](Cc2ccccc2)N(C)C(=O)CNC(=O)[C@H](C)NC(=O)[C@@H](CCCNC(=N)N)NC(=O)[C@@H](NC(=O)C[C@H](O)CC(C)C)[C@@H](C)OC(=O)[C@H]([C@@H](C)O)NC1=O [Peptide A1] ({Hexanoyl(3R-OH,5-Me)}-T[dR]AG[dNMeF]L[dR]E[dQ][dW]IT; ester 1-C)
antimicrobial activity relative to parent 1 [5]: 4 fold

SMILES: CC[C@H](C)[C@@H]1NC(=O)[C@@H](Cc2c[nH]c3ccccc23)NC(=O)[C@@H](C(C)C)NC(=O)[C@H](CCC(=O)O)NC(=O)[C@@H](CCCNC(=N)N)NC(=O)[C@H](CC(C)C)NC(=O)[C@@H](Cc2ccccc2)N(C)C(=O)CNC(=O)[C@H](C)NC(=O)[C@@H](CCCNC(=N)N)NC(=O)[C@@H](NC(=O)C[C@H](O)CC(C)C)[C@@H](C)OC(=O)[C@H]([C@@H](C)O)NC1=O [Peptide A2] ({Hexanoyl(3R-OH,5-Me)}-T[dR]AG[dNMeF]L[dR]E[dV][dW]IT; ester 1-C)
antimicrobial activity relative to parent 1 [5]: 4 fold

SMILES: CC[C@H](C)[C@@H]1NC(=O)[C@@H](Cc2c[nH]c3ccccc23)NC(=O)[C@@H](C(C)C)NC(=O)[C@H](CCC(=O)O)NC(=O)[C@@H](CCCNC(=N)N)NC(=O)[C@H](CC(C)C)NC(=O)[C@@H](Cc2ccccc2)N(C)C(=O)CNC(=O)[C@H](CCCCN)NC(=O)[C@@H](CCCNC(=N)N)NC(=O)[C@@H](NC(=O)C[C@H](O)CC(C)C)[C@@H](C)OC(=O)[C@H]([C@@H](C)O)NC1=O [Peptide A3] ({Hexanoyl(3R-OH,5-Me)}-T[dR]KG[dNMeF]L[dR]E[dV][dW]IT; ester 1-C)
antimicrobial activity relative to parent 1 [5]: 4 fold

MIC [7]: 64 µg/mL (≈ 37.9 µM)
SMILES: CC(C)C[C@@H](O)CC(=O)N[C@@H]1C(=O)N[C@H](CCCNC(=N)N)C(=O)N[C@@H](C)C(=O)NCC(=O)N(C)[C@H](Cc2ccccc2)C(=O)N[C@@H](CC(C)C)C(=O)N[C@H](CCCNC(=N)N)C(=O)N[C@@H](CCC(=O)O)C(=O)N[C@H](Cc2ccc(O)cc2)C(=O)N[C@H](Cc2c[nH]c3ccccc23)C(=O)N[C@@H](Cc2ccc(O)cc2)C(=O)N[C@@H]([C@@H](C)O)C(=O)O[C@@H]1C [Peptide A15] ({Hexanoyl(3R-OH,5-Me)}-T[dR]AG[dNMeF]L[dR]E[dY][dW]YT; ester 1-C)

MIC [8]: 16 µg/mL (≈ 9.52 µM) | MIC (Bacillus cereus JCM20037): 16 µg/mL (≈ 9.52 µM)
SMILES: CC[C@H](C)[C@@H]1NC(=O)[C@@H](Cc2c[nH]c3ccccc23)NC(=O)[C@@H](Cc2ccc(O)cc2)NC(=O)[C@H](CCC(=O)O)NC(=O)[C@@H](CCCNC(=N)N)NC(=O)[C@H](CC(C)C)NC(=O)[C@@H](Cc2ccccc2)N(C)C(=O)CNC(=O)[C@H](CC(=O)O)NC(=O)[C@@H](CCCNC(=N)N)NC(=O)[C@@H](NC(=O)C[C@H](O)CC(C)C)[C@@H](C)OC(=O)[C@H]([C@@H](C)O)NC1=O [Peptide A17] ({Hexanoyl(3R-OH,5-Me)}-T[dR]DG[dNMeF]L[dR]E[dY][dW]IT; ester 1-C)
